These results are taken from ChEMBL document CHEMBL1135556, “alpha-bromoacetophenone derivatives as neutral protein tyrosine phosphatase inhibitors: structure-Activity relationship” (Bioorg Med Chem Lett, 2002).

Experiment [1] addresses Tyrosine-protein phosphatase non-receptor type 6, SHP-1 (Homo sapiens) (UniProt P29350). The experiment in a line: Dissociation constant towards SHP-1 receptor-inhibitor complex was determined using PNP as substrate.
The target is the same in experiment [2]. The experiment is described as follows: Ratio between dissociation constant and First-order rate constant (K inact / Ki) was determined.
Experiment [3] shares this target. The experiment in a line: First-order rate constant (K inact) for conversion of the ExI complex (SHP-1 -inhibitor complex) into the covalent adduct, EI was determined using PNP as substrate.
Experiment [4] has as its target T1, Tyrosine-protein phosphatase non-receptor type 1 (Homo sapiens) (UniProt P18031).
T1 sequence (whole entry): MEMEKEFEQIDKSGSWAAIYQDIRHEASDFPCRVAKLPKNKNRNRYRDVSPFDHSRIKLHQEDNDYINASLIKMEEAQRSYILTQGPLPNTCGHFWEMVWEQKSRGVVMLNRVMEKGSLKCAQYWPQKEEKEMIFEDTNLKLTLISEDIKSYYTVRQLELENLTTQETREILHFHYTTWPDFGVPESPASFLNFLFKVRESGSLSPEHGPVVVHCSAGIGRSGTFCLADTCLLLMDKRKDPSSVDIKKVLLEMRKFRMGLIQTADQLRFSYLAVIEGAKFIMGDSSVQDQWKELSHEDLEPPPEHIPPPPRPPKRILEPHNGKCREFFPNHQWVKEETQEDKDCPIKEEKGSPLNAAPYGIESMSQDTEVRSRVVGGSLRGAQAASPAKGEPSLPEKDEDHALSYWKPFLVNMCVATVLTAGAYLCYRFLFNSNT
The experiment is described as follows: First-order rate constant (K inact) for conversion of the ExI complex (SHP 1 receptor -inhibitor complex) into the covalent adduct, EI was determined using PNP as substrate.

The target in experiment [5] is T2, Tyrosine-protein phosphatase non-receptor type 6 (Homo sapiens, UniProt P29350).
T2 sequence (P29350 whole entry): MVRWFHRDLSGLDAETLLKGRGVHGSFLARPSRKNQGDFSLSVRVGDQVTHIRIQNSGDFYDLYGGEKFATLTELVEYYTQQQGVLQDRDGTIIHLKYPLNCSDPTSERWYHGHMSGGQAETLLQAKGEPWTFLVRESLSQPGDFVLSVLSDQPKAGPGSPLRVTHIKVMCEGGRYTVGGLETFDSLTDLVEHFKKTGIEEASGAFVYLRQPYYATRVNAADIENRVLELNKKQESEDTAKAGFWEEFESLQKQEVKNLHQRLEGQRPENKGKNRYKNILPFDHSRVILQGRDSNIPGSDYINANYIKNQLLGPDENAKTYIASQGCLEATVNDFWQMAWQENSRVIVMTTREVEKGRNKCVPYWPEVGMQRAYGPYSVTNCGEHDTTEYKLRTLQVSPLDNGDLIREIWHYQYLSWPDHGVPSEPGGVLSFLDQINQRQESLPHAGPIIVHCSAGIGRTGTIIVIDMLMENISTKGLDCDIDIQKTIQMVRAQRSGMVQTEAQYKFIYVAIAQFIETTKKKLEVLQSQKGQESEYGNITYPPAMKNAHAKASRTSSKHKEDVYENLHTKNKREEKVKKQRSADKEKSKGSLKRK
Experiment [6] concerns the target T2, Tyrosine-protein phosphatase non-receptor type 6. The experiment is described as follows: Dissociation constant towards SHP 1 receptor-inhibitor complex was determined using PNP as substrate.
In experiment [7] the target is Tyrosine-protein phosphatase non-receptor type 6, SHP-1 (Homo sapiens) (UniProt P29350). The experiment is described as follows: Dissociation constant towards SHP 1 receptor-inhibitor complex was determined using PNP as substrate.
Sequence of Tyrosine-protein phosphatase non-receptor type 6, SHP-1 (Homo sapiens) (P29350 whole entry, looked up): as the sequence (P29350 whole entry) above
Experiment [8] has the same target. The experiment is described as follows: First-order rate constant (K inact) for conversion of the ExI complex (SHP 1 protein -inhibitor complex) into the covalent adduct, EI was determined using PNP as substrate.

The molecule `O=C(CCl)c1ccc(F)cc1F` displayed a Ki in experiment [1] of 17500 µM. In addition, the Ratio in experiment [2] is 120 M⁻¹ min⁻¹. The kinact in experiment [3] came to 2.1 min⁻¹.
For `O=C(CBr)c1ccc2ccccc2c1`, the Ki in experiment [1] was 25 µM. Besides, in experiment [2], the Ratio came to 20000 M⁻¹ min⁻¹. Further, the kinact in experiment [3] turned out to be 0.48 min⁻¹.
Regarding `O=C(CBr)c1ccc(C(F)(F)F)cc1`, the affinity in experiment [1] corresponds to a Ki of 14 µM. Also, the Ratio in experiment [2] was 26000 M⁻¹ min⁻¹. In experiment [3], the maximal inactivation rate constant (kinact) was 0.37 min⁻¹.
In the case of `O=C(CCl)c1ccc(F)cc1`, the Ki in experiment [1] stood at 380 µM. Further, in experiment [2], the Ratio was determined as 580 M⁻¹ min⁻¹. Further, in experiment [3], the kinact was 0.22 min⁻¹.
In the case of `N=C(N)NCCCC(NC(=O)[C@H](CCCNC(=N)N)NC(=O)CNC(=O)COc1ccc(C(=O)CBr)cc1)C(=O)O` (some centres not stated), the Ratio in experiment [2] was 6300 M⁻¹ min⁻¹. Besides, in experiment [4], the kinact was 4.8 min⁻¹.
Turning to `O=C(CCl)c1ccc(O)c(O)c1`, in experiment [1], the Ki turned out to be 1400 µM. For the same molecule, the Ratio in experiment [2] was 420 M⁻¹ min⁻¹. Moreover, the kinact in experiment [3] was determined as 0.59 min⁻¹.
Take `O=C(O)CCC(NC(=O)[C@H](CCC(=O)O)NC(=O)CNC(=O)COc1ccc(C(=O)CBr)cc1)C(=O)O` (some centres not stated): the Ki is 2.8 µM in experiment [1] and 29 µM in experiment [6]. Further, the values for the kinact in experiment [5] and in experiment [3] were 6.6 min⁻¹ and 1.2 min⁻¹, respectively.
`O=C(CCl)c1ccccc1` [PHENACYL CHLORIDE] gave an inhibition constant (Ki) in experiment [1] of 480 µM. The Ratio in experiment [2] came out at 430 M⁻¹ min⁻¹. Also, in experiment [3], the kinact stood at 0.21 min⁻¹.
On to `O=C(CBr)c1ccc(-c2ccccc2)cc1`, for which affinity in experiment [1] was put at a Ki of 14 µM. Moreover, in experiment [2], the Ratio was determined as 41 M⁻¹ min⁻¹. In addition, in experiment [3], the kinact is 0.59 min⁻¹.
As to `O=C(CBr)c1cccc2ccccc12`, affinity in experiment [1] was put at a Ki of 92 µM. Moreover, the Ratio in experiment [2] is 9400 M⁻¹ min⁻¹. The kinact in experiment [3] worked out at 0.86 min⁻¹.
In the case of `O=C(CBr)c1ccccc1`, the affinity in experiment [1], expressed as Ki, was 81 µM. Moreover, in experiment [2], the Ratio came out at 7100 M⁻¹ min⁻¹. For the same molecule, the kinact in experiment [3] came to 0.58 min⁻¹.
For `O=C(CBr)c1ccc(F)cc1`, the affinity in experiment [1] corresponds to a Ki of 56 µM. Besides, the Ratio in experiment [2] was determined as 9100 M⁻¹ min⁻¹. The kinact in experiment [3] was 0.51 min⁻¹.
On to `O=C(CBr)c1ccccn1`, for which the Ki in experiment [1] was determined as 173 µM. In experiment [2], the Ratio was 7500 M⁻¹ min⁻¹. Moreover, the kinact in experiment [3] turned out to be 1.3 min⁻¹.
The molecule `NC(N)=NCCCC(NC(=O)[C@H](CCCN=C(N)N)NC(=O)CNC(=O)COc1ccc(C(=O)CBr)cc1)C(=O)O` (some centres not stated) had a Ki in experiment [7] of 760 µM.
As to `O=C(CBr)c1ccc(-c2ccccc2C(=O)O)cc1`, in experiment [2], the Ratio was found to be 4550 M⁻¹ min⁻¹. Also, the kinact in experiment [8] stood at 1 min⁻¹. Further, the Ki in experiment [7] is 220 µM.
As for `O=C(CBr)c1ccc(O)cc1`, in experiment [1], affinity was put at a Ki of 43 µM. For the same molecule, the Ratio in experiment [2] was 9300 M⁻¹ min⁻¹. Also, the kinact in experiment [3] stood at 0.4 min⁻¹.
`O=C(O)COc1ccc(C(=O)CCl)cc1`: in experiment [1], the affinity corresponds to a Ki of 2500 µM. Moreover, the Ratio in experiment [2] amounted to 710 M⁻¹ min⁻¹. The kinact in experiment [3] came to 1.8 min⁻¹.
`O=C(O)COc1ccc(C(=O)CBr)cc1`: in experiment [2], the Ratio was found to be 9300 M⁻¹ min⁻¹. The kinact in experiment [8] was 1.8 min⁻¹. In experiment [7], this molecule registered a Ki of 193 µM.

A word on the Ki: it is a dissociation constant, usually derived from enzyme kinetics or from competition with a known ligand. Low values mean higher affinity, high ones lower affinity. As a reminder, the kinact is the rate constant of inactivation at saturating inhibitor.
